Columns and labels:
Assay in all cases: MIC, sole activity (no second agent)
Type in all cases: cell-based
Conditions in all cases: Table 6A; no second agent; different supplier of Cation-adjusted MHB
Acinetobacter baumannii = test system: Acinetobacter baumannii
Outline: (§1)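 Inoculum: direct colony suspension (18-24 h MH agar), 0.5 McFarland. Medium: cation-adjusted MHB. Up to 4 strains/species; reported relative to Polymyxin B.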

Escherichia coli = test system: Escherichia coli
Outline: as §1

Klebsiella pneumoniae = test system: Klebsiella pneumoniae
Outline: as §1

Pseudomonas aeruginosa = test system: Pseudomonas aeruginosa
Outline: as §1

Substance	MIC A. baumannii ATCC BAA-747 (Acinetobacter baumannii)	MIC A. baumannii NCTC 13424 (Acinetobacter baumannii)	MIC E. coli ATCC25922 (Escherichia coli)	MIC E. coli NCTC 13441 (Escherichia coli)	MIC K. pneumoniae ATCC 4352 (Klebsiella pneumoniae)	MIC K. pneumoniae ATCC BAA-2146 (Klebsiella pneumoniae)	MIC P. aeruginosa ATCC 27853 (Pseudomonas aeruginosa)	MIC P. aeruginosa CCUG 59347 (Pseudomonas aeruginosa)
L-Pro polymyxin B nonapeptide [Example A37]	>8 micrograms/mL	>8 micrograms/mL	>8 micrograms/mL	>8 micrograms/mL	>8 micrograms/mL	>8 micrograms/mL	2 micrograms/mL	>8 micrograms/mL
Piperidine-1-ylethanoyl polymyxin B nonapeptide [Example A2]	>8 micrograms/mL	>8 micrograms/mL	4 micrograms/mL	>8 micrograms/mL	8 micrograms/mL		2 micrograms/mL	4 micrograms/mL
Piperidine-2-carbonyl polymyxin B nonapeptide. Isomer 1 [Example A25]	>8 micrograms/mL	8 micrograms/mL	>8 micrograms/mL	>8 micrograms/mL	8 micrograms/mL	>8 micrograms/mL	2 micrograms/mL	4 micrograms/mL
Piperidine-2-carbonyl polymyxin B nonapeptide. Isomer 2 [Example A26]	2 micrograms/mL	1 micrograms/mL	2 micrograms/mL	2 micrograms/mL	0.5 micrograms/mL	1 micrograms/mL	1 micrograms/mL	2 micrograms/mL
[2-(RS)-(2-Hydroxy-2- cyclohexyl)ethanoyl]-L-Thr- L-Dap-polymyxin B heptapeptide [Example A4]	>8 micrograms/mL	>8 micrograms/mL	1 micrograms/mL	4 micrograms/mL	2 micrograms/mL		2 micrograms/mL	2 micrograms/mL
[3(R,S)-3-Amino-3- cyclohexanepropanoyl]-Gly- polymyxin B nonapeptide [Example A7]	4 micrograms/mL	8 micrograms/mL	>8 micrograms/mL	>8 micrograms/mL	>8 micrograms/mL		1 micrograms/mL	>8 micrograms/mL
[3(R,S)-3-Amino-3- cyclohexanepropanoyl]-L- Arg- polymyxin B nonapeptide [Example A23]	2 micrograms/mL	4 micrograms/mL	>8 micrograms/mL	>8 micrograms/mL	>8 micrograms/mL	>8 micrograms/mL	8 micrograms/mL	>8 micrograms/mL
[3(R,S)-3-Amino-3- cyclohexanepropanoyl]-L- Dab-L-Thr-L-Dap polymyxin B heptapeptide [Example A10]	2 micrograms/mL	2 micrograms/mL	1 micrograms/mL	1 micrograms/mL	0.5 micrograms/mL		0.25 micrograms/mL	0.25 micrograms/mL
[3(R,S)-3-Amino-3- cyclohexanepropanoyl]-L- His- polymyxin B nonapeptide [Example A19]	4 micrograms/mL	4 micrograms/mL	8 micrograms/mL	4 micrograms/mL	8 micrograms/mL	8 micrograms/mL	1 micrograms/mL	2 micrograms/mL
[3(R,S)-3-Amino-3- cyclohexanepropanoyl]-L- Phe- polymyxin B nonapeptide isomer 1 [Example A20]	>8 micrograms/mL	>8 micrograms/mL	>8 micrograms/mL	>8 micrograms/mL	>8 micrograms/mL	>8 micrograms/mL	>8 micrograms/mL	>8 micrograms/mL
[3(R,S)-3-Amino-3- cyclohexanepropanoyl]-L- Phe- polymyxin B nonapeptide isomer 2 [Example A21]	>8 micrograms/mL	>8 micrograms/mL	>8 micrograms/mL	>8 micrograms/mL	>8 micrograms/mL	>8 micrograms/mL	>8 micrograms/mL	>8 micrograms/mL
[3(R,S)-3-Amino-3- cyclohexanepropanoyl]-L- Pro- polymyxin B nonapeptide isomer 1 [Example A8]	>8 micrograms/mL	>8 micrograms/mL	>8 micrograms/mL	>8 micrograms/mL	>8 micrograms/mL		2 micrograms/mL	4 micrograms/mL
[3(R,S)-3-Amino-3- cyclohexanepropanoyl]-L- Pro- polymyxin B nonapeptide isomer 2 [Example A9]	>8 micrograms/mL	>8 micrograms/mL	>8 micrograms/mL	>8 micrograms/mL	>8 micrograms/mL		2 micrograms/mL	>8 micrograms/mL
[3(R,S)-3-Amino-3- cyclohexanepropanoyl]-L- Ser- polymyxin B nonapeptide [Example A11]	4 micrograms/mL	4 micrograms/mL	>8 micrograms/mL	8 micrograms/mL	8 micrograms/mL		1 micrograms/mL	2 micrograms/mL
[3(R,S)-3-Amino-3- cyclohexanepropanoyl]-L- Tyr- polymyxin B nonapeptide [Example A27]	8 micrograms/mL	>8 micrograms/mL	>8 micrograms/mL	>8 micrograms/mL	>8 micrograms/mL	>8 micrograms/mL		4 micrograms/mL

Reference: US10407467B2, “Polymyxin derivatives and their use in combination therapy together with different antibiotics” (priority 2013, dated 2019)
